This note sets out measurements from ChEMBL document CHEMBL2401661, “Cyanidin, a natural flavonoid, is an agonistic ligand for liver X receptor alpha and beta and reduces cellular lipid accumulation in macrophages and hepatocytes” (Bioorg Med Chem Lett, 2013).

Calls of active or inactive are those of the source. The rule behind the calls is not given here.

The target in experiment [1] is T1, Oxysterols receptor LXR-alpha (Homo sapiens, UniProt Q13133).
T1 sequence (Q13133 whole entry): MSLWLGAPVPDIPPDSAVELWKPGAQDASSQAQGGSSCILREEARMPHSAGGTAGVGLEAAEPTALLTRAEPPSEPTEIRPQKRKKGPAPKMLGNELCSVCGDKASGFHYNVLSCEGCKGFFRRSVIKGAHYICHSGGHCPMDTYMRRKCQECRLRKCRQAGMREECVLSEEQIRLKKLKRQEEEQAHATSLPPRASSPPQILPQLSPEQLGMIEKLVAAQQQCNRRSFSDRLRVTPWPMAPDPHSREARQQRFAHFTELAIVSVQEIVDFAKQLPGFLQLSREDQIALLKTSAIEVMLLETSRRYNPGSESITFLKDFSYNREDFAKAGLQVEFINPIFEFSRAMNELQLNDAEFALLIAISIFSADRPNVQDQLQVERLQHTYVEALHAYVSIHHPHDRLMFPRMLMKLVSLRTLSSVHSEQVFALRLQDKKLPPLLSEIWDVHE
Nature of the experiment: (§1) Agonist activity at human LXRalpha-LBD assessed as recruitment of co-activator peptide after 2 hrs by TR-FRET assay.

In experiment [2] the target is T1, Oxysterols receptor LXR-alpha. Briefly: (§2) Binding affinity to human LXRalpha-LBD by surface plasmon resonance.
Experiment [3] has as its target T2, Liver X receptor (Homo sapiens) (UniProt Q13133+P55055). Nature of the experiment: Agonist activity at LXR in human THP1 cells assessed as reduction in cellular cholesterol after 24 hrs. The format is cell-based. The conditions noted are these: THP-1.
Experiment [4] concerns the target T3, Oxysterols receptor LXR-beta (Homo sapiens, UniProt P55055). Briefly: Agonist activity at human LXRbeta-LBD assessed as recruitment of co-activator peptide after 2 hrs by TR-FRET assay.
Experiment [5] addresses T4, Oxysterols receptor LXR-alpha (Homo sapiens) (UniProt Q13133).
T4 sequence (whole entry): T1 sequence (Q13133 whole entry)
Briefly: Agonist activity at LXRalpha (unknown origin) expressed in CHOK1 cells assessed as induction of transactivation activity at 50 uM after 24 hrs by luciferase reporter gene assay relative to control. The settings on record: CHO-K1. In kind it is cell-based.

Experiment [6] deals with T3, Oxysterols receptor LXR-beta. Nature of the experiment: Agonist activity at LXRbeta in human HepG2 cells assessed as LXRbeta transcription at 50 to 100 uM after 24 hrs by RT-qPCR analysis. In kind it is cell-based.
For experiment [7] the target is unchanged. Briefly: Binding affinity to human LXRbeta-LBD by surface plasmon resonance.
Experiment [8] has as its target T2, Liver X receptor (Homo sapiens). Briefly: Agonist activity at LXR in human HepG2 cells assessed as reduction in cellular cholesterol after 24 hrs. In kind it is cell-based.
The target is the same in experiment [9]. Briefly: Agonist activity at LXR in human THP1 cells assessed as reduction in cellular triglyceride after 24 hrs. The format is cell-based. The settings on record: THP-1.
The target is the same in experiment [10]. Briefly: Agonist activity at LXR in human HepG2 cells assessed as upregulation of ABCG5 expression at 100 uM after 24 hrs by RT-qPCR analysis relative to control. In kind it is cell-based.
The target is the same in experiment [11]. Briefly: Agonist activity at LXR in human HepG2 cells assessed as reduction in cellular triglyceride at 100 uM after 24 hrs. The format is cell-based. The arrangement: scale not given: the % may be the effect or the level left.
The target of experiment [12] is T4, Oxysterols receptor LXR-alpha (Homo sapiens). Briefly: Agonist activity at LXRalpha (unknown origin) expressed in CHOK1 cells assessed as induction of transactivation activity at 100 uM after 24 hrs by luciferase reporter gene assay relative to control. The format is cell-based. The settings on record: CHO-K1.
The target is the same in experiment [13]. Briefly: Induction of LXRalpha transcription in human HepG2 cells at 50 to 100 uM after 24 hrs by RT-qPCR analysis relative to control. In kind it is cell-based.
For experiment [14], the target named is T2, Liver X receptor (Homo sapiens). Nature of the experiment: Agonist activity at LXR in human HepG2 cells assessed as reduction in cellular triglyceride after 24 hrs. The format is cell-based.
Experiment [15] shares this target. Briefly: Agonist activity at LXR in human HepG2 cells assessed as upregulation of SREBP1C expression at 100 uM after 24 hrs by RT-qPCR analysis relative to control. In kind it is cell-based.
Experiment [16] shares this target. Briefly: Agonist activity at LXR in human HepG2 cells assessed as upregulation of ABCA1 expression at 100 uM after 24 hrs by RT-qPCR analysis relative to control. The format is cell-based.
For experiment [17] the target is unchanged. Nature of the experiment: Agonist activity at LXR in human THP1 cells assessed as reduction in cellular triglyceride at 100 uM after 24 hrs. The format is cell-based. The conditions noted are these: THP-1. The arrangement: scale not given: the % may be the effect or the level left.
The target in experiment [18] is T3, Oxysterols receptor LXR-beta. Briefly: Agonist activity at LXRbeta (unknown origin) expressed in CHOK1 cells assessed as induction of transactivation activity at 100 uM after 24 hrs by luciferase reporter gene assay relative to control. In kind it is cell-based. The settings on record: CHO-K1.
Experiment [19] deals with T4, Oxysterols receptor LXR-alpha (Homo sapiens). The experiment is described as §2.
Experiment [20] has the same target. Described as §1.

T3 sequence (P55055 whole entry, the tested form may be a part): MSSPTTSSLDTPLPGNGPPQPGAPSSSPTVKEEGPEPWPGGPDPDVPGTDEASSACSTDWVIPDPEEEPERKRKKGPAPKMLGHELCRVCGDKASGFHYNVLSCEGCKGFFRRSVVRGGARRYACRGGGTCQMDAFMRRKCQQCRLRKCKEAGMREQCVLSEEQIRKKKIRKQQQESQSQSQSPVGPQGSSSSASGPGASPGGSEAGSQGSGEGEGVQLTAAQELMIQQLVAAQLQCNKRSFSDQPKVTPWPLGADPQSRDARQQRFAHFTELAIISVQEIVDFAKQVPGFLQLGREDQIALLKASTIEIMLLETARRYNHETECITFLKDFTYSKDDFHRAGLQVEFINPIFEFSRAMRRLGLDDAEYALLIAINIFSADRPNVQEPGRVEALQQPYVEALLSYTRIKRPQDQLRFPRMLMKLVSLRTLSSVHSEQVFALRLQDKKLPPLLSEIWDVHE
T2 sequence (P55055 whole entry, looked up, one chain of several, the tested form may be a part): as the sequence (P55055 whole entry, the tested form may be a part) above

With `CC(C)CC[C@@H](O)[C@@H](C)[C@H]1CC[C@H]2[C@@H]3CC=C4C[C@@H](O)CC[C@]4(C)[C@H]3CC[C@]12C` [22(R)-HYDROXYCHOLESTEROL], the EC50 in experiment [1] came to 1 µM.

Turning to `Oc1cc(O)c2cc(O)c(-c3ccc(O)c(O)c3)[o+]c2c1` [CYANIDIN], the Kd in experiment [2] worked out at 2.2 µM; in experiment [7] it was 73.2 µM. For the same compound, the Activity result in experiment [3] was “Dose-dependent effect”; in experiment [5] it was 32%; in experiment [8], “Dose-dependent effect”; in experiment [9], “Dose-dependent effect”; in [11] it was -23%; in [12] it was 59%. The Activity result in experiment [14] is “Dose-dependent effect”; in [17] it was -21%; in [18], 33%. Also, the EC50 in experiment [1] came to 3.5 µM; in experiment [4], 125 µM. Also, the result in experiment [6] was inactive. Moreover, the fold change (FC) stood at 1.4 in [10], 1.5 in experiment [13], 3.6 in experiment [15] and 2.5 in experiment [16].

`O=C(O)c1ccc(O)c(O)c1`: the outcome in experiment [19], in [20], in experiment [4] and in experiment [7] was inactive.

Turning to `O=Cc1c(O)cc(O)cc1O`, the outcome in experiment [19], in [20], in experiment [4] and in experiment [7] was inactive.
